Results reported in paper PMC9743090, “Induction of Ferroptosis in Glioblastoma and Ovarian Cancers by a New Pyrrole Tubulin Assembly Inhibitor” (Journal of Medicinal Chemistry, 2022).
Entries after “also recorded” stand apart in the source; their conditions may differ.

Legend:
[1] = system: human primary T lymphocytes; assay: Toxicity on human primary T lymphocytes (annexin V / propidium iodide flow cytometry); format: cell-based; conditions: 48 or 72 h
Protocol: Cell lines were obtained from the American Type Culture Collection (ATCC), Rockville, MD. U87 MG cells were cultured in minimum essential medium (MEM) supplemented with 10% fetal bovine serum, 1% penicillin/streptomycin, 1% glutamine, 1% sodium pyruvate, and 1% nonessential amino acids. OVCAR-3 cells were cultured in Dulbecco’s modified eagle medium (DMEM) purchased from Sigma Aldrich (cat. no. D6546) supplemented with 20% fetal bovine serum,1% penicillin/streptomycin, 1% glutamine, 1% sodium pyruvate, 1% Hepes, and 0.01 μg/mL insulin (Sigma Aldrich, cat. no. 19278). […] Healthy donors’ peripheral blood mononuclear cells (PBMCs) were isolated by Lymphoprep (Nycomed) gradient centrifugation. T lymphocytes were negatively selected from PBMCs using a magnetic Dynabeads Untouched Human T Cells Kit (Thermo Fisher Scientific) following the manufacturer’s instructions.
Apoptotic cell death was evaluated using the APC Annexin-V Apoptosis Detection Kit with PI (Thermo Fisher Scientific). Briefly, 1.5 × 10^6/mL cells were cultured in 48-well plates, untreated or treated with different concentrations of 15 for 48 or 72 h. Cells were then stained using annexin-V/APC and propidium iodide according to the manufacturer’s instructions. Cell populations were acquired using a FACS Canto II flow cytometer (BD Biosciences). […]

SKOV-3 = assay: In vivo SKOV-3 xenograft, tumor size and tumor tissue analysis; set-up: species or system BALB/C^nu/nu mice
Protocol: (§1) Briefly, all 10 week-old female BALB/C^nu/nu mice (24 mice) were purchased from the Shanghai University of Traditional Chinese Medicine with Institutional Animal Care and Use Committee approval in accordance with institutional guidelines. All mice were randomly divided into four groups. In #1 group (4 mice), 1 × 10^8 cells/mL from U-87 MG at the logarithmic growth phase were harvested and inoculated subcutaneously, followed by intraperitoneal injection of 100 μL of 15 (25 mg/kg) every 2 days. In #2 group (4 mice), 1 × 10^8 cells/mL from U-87 MG at the logarithmic growth phase were harvested and inoculated subcutaneously, followed by intraperitoneal injection of 100 μL of saline every 2 days. In #3 group (4 mice), 1 × 10^8 cells/mL from SKOV-3 at the logarithmic growth phase were harvested and inoculated subcutaneously, followed by intraperitoneal injection of 100 μL 15 (25 mg/kg) every 2 days. In #4 group (4 mice), 1 × 10^8 cells/mL from SKOV-3 at the logarithmic growth phase were harvested and inoculated subcutaneously, followed by intraperitoneal injection of 100 μL of saline every 2 days. After continuous feeding for 40 days, the mice were sacrificed, and the tumors were removed. The tumors were weighed, and the volumes were calculated using the following formula: Tumor volume (cm^3) = (ab^2)/2 (a: the longest axis (cm), b: the shortest axis (cm)).
(§2) Briefly, fresh tissues were immersed in 4% paraformaldehyde (Sigma-Aldrich) for fixation at room temperature for 30 min. The tissues were then dehydrated in an ethanol gradient, embedded in paraffin, sectioned (thickness: 6 μm), and immersed in xylene for dewaxing. Tissue sections were blocked with immunohistochemical blocking solution (Beyotime Biotechnology Co., Ltd., Zhejiang, China) at 37 °C for 30 min. The blocking solution was then discarded, and the sections were washed three times at room temperature for 5 min, each with immunohistochemical washing solution (Beyotime Biotechnology). Then, primary antibodies (rabbit anti-GPX4 antibody [EPNCIR144] (ab125066), rabbit anti-ferritin heavy chain antibody [EPR18878] (ab183781), and rabbit anti-Ki67 antibody (ab15580), Abcam, MA, USA) were added and incubated at 37 °C for 45 min. After incubation, the antibody solution was discarded, and the sections were washed three times at room temperature for 5 min each with immunohistochemical washing solution (Beyotime Biotechnology). Then, the secondary antibody (goat anti-rabbit IgG H&L (Alexa Fluor 488), Abcam, MA, USA) was added, and the tissues were incubated at 37 °C for 45 min. After incubation, the antibody solution was discarded, and the sections were washed three times at room temperature for 5 min, each with immunohistochemical washing solution (Beyotime Biotechnology). Finally, immunofluorescence blocking solution (Sigma-Aldrich) was added, and the sections were mounted.
(§3) According to the instructions of the RNAprep pure Tissue Kit (TIANGEN Biotech (Beijing) China) Co., Ltd., Beijing, China), to about 20 mg of […] tissue specimen was added 800 μL of lysis solution, and the mixture was ground, homogenized, and centrifuged. To the supernatant, 200 μL of chloroform was added, and the mixture was mixed by inverting and centrifuged at 4 °C at 13,400 × g for 15 min. To the supernatant, two volumes of absolute ethanol were added, mixed by inversion, and centrifuged at 4 °C at 13,400 × g for 30 min. Ethanol precipitation and centrifugation of the supernatant were repeated. The RNA pellet was suspended with 500 μL of 75% ethanol and centrifuged at 13,400 × g at 4 °C for 5 min. The supernatant was discarded, the excess liquid was removed, and the pellet was dissolved in 300 μL of DECP water. One microliter of the RNA solution was used to measure the ratio of A260–A280 (generally 1.8–2.0) to determine the purity and approximate concentration of the RNA. […]

U-87 MG = assay: In vivo U-87 MG xenograft, tumor size and tumor tissue analysis; set-up: species or system BALB/C^nu/nu mice
Protocol: as §1, §2, §3

[2] = 25 mg/kg i.p. every 2 days, day 40

## COc1cc(C(=O)c2cn(-c3ncccn3)cc2-c2ccco2)cc(OC)c1OC [Compound 15, (4-(Furan-2-yl)-1-(pyrimidyl-2-yl)-1H-pyrrol-3-yl)(3,4,5-trimethoxyphenyl)methanone]
[1]; 0.1 μM
  cell viability / toxicity: did not change cell viability; also recorded: not toxic
[1]; 1.0 or 2.5 μM
  cell viability / toxicity: some cytotoxicity was observed
SKOV-3; 25 mg/kg i.p. every 2 days
  ATP level in tumor tissue vs control: significantly lower
  Fe2+ concentration in tumor tissue vs control: significantly higher
  LPO level in tumor tissue vs control: appreciably higher
  MDA level in tumor tissue vs control: appreciably higher
  T-GSH level in tumor tissue vs control: significantly lower
  lactic acid level in tumor tissue vs control: appreciably higher
SKOV-3; [2]
  tumor size (volume and weight) vs saline control: significantly smaller
SKOV-3; immunofluorescence staining
  CD31 expression in tumor tissue vs control: significantly lower expression
  FTH1 expression in tumor tissue vs control: significantly lower expression
  GPX4 expression in tumor tissue vs control: significantly lower expression
  Ki67 expression in tumor tissue vs control: significantly lower expression
U-87 MG; 25 mg/kg i.p. every 2 days
  ATP level in tumor tissue vs control: significantly lower
  Fe2+ concentration in tumor tissue vs control: significantly higher
  LPO level in tumor tissue vs control: appreciably higher
  MDA level in tumor tissue vs control: appreciably higher
  T-GSH level in tumor tissue vs control: significantly lower
  lactic acid level in tumor tissue vs control: appreciably higher
U-87 MG; [2]
  tumor size (volume and weight) vs saline control: significantly smaller
U-87 MG; immunofluorescence staining
  CD31 expression in tumor tissue vs control: significantly lower expression
  FTH1 expression in tumor tissue vs control: significantly lower expression
  GPX4 expression in tumor tissue vs control: significantly lower expression
  Ki67 expression in tumor tissue vs control: significantly lower expression
